Laboratory results published in patent US20120208781A1, “AMINOGLYCOSIDE DOSING REGIMENS” (Achaogen, Inc., priority 2009, published 2012).
In brackets after ≈: the same amount, converted by molar mass. Read-outs that look alike come from different tables or passages of the source.

How the values were obtained:
[1] = Guinea pig toxicokinetics of Compound 1; type: in vivo, guinea pigs
Experimental: Additionally, four groups of four male and four female animals were utilized for toxicokinetic (TK) sampling and received the control or test article in the same manner as the main study groups at respective dose levels of 0 (Vehicle Control), 8, 30, or 80 mg/kg.
Physical examinations were conducted pretest on all animals and prior to study termination for main study animals. […] Blood samples for determination of the plasma concentrations of the test article were collected from TK animals at designated time points on Day 1 and Day 14. After blood collection, the TK animals were euthanized and the carcasses were discarded.

Enterobacteriaceae (ENT) = assay: MIC, CLSI broth microdilution, worldwide isolates: Enterobacteriaceae; type: cell-based
Source text: In the first study, a total of 235 isolates were collected from medical centers worldwide and tested for susceptibility to Compound 1 and comparator agents by CLSI broth microdilution methods. […] Non-ENT GN pathogens included WT P. aeruginosa (PSA) and Acinetobacter spp. (ACB), and carbapenem (CARB)-R strains, including those with MBL and OXA enzymes, SA and coagulase-negative staphylococci (CoNS) included oxacillin-susceptible (MSSA/MS-CoNS) and —R (MRSA/MR-CoNS) strains.
Minimum inhibitory concentrations (MIC) were determined by reference Clinical and Laboratory Standards Institute (CLSI) broth microdilution methods per M7-A7 [2006]. Briefly, serial two-fold dilutions of Compound 1 and comparator AGs (together, “the test compounds”) were prepared at 2× concentration in appropriate diluent. The dilutions were mixed in 96-well assay plates with bacterial inoculum. Bacteria were suspended in sterile saline and added to each assay plate to obtain a final concentration of 5.5×10^5 CFU/mL. The plates were incubated at 35° C. for 20 hours in ambient air. […] After incubation, assay plates were read using a microtiter plate reader at 600 nm.

[2] = First-in-human phase 1 study: plasma pharmacokinetics of Compound 1; type: in vivo; conditions: for AUC(0-inf) / Cmax / clearance / half-life: both sexes, human, plasma, intravenous, human plasma, single dose
Source text: The initial, first-in-human (FIH) phase 1 study was a double-blind, randomized, placebo-controlled, parallel-group, single- and multiple-dose-escalation study to assess the safety, tolerability, and pharmacokinetics of Compound 1 administered IV to healthy adult volunteers. In addition, the design of this FIH phase 1 study provided rationale and support for dosing for the proposed phase 2 study in patients with cUTI (see FIG. 11).
This study was designed with four escalating dose arms in both single-dose and multiple-dose phases. Compound 1 was formulated as a sterile solution at a concentration of 50 mg/mL in 10 mL glass vials for intravenous (IV) administration (“Compound 1 Injection”). To support high-dose, short-course therapy, the FIH phase 1 study investigated escalating doses with shorter durations at the higher dosages. At least 32 male and female healthy subjects (8 per Cohort) were randomized to receive a single dose of either Compound 1 Injection or placebo administered IV by 10 minute infusion in a double-blinded manner, as shown below:
Cohort 1a: 1 mg/kg Single Dose (SD) only
Cohort 1b: 4 mg/kg SD and Multiple Doses (MD) for 10 days
Cohort 2: 7 mg/kg SD and MD for 10 days
Cohort 3: 11 mg/kg SD and MD for 5 days
Cohort 4: 15 mg/kg SD and MD for 3 days
Blood and urine samples for safety laboratory tests were obtained during the screen period, before and after the single-dose, before and after the multiple-dose (additional samples were obtained during multiple-dose period depending on MD duration). Blood samples for PK analysis were obtained with the single dose and first and last multiple-doses at the following times:
5, 10, 15, 20, 30, 45, 60 minutes after the start of the infusion; and
1, 1.5, 2, 2.5 (Cohorts 3 and 4 only), 3, 4, 6, 8, 12, 16, 24, and 48 hours after the start of the infusion.
For subjects in the 10-day multiple-dose cohorts, additional blood samples for PK analysis were obtained predose on days 11, 13, and 15.

[3] = GLP 14-day repeat-dose safety study in dog; type: in vivo
Source text: The guidance states that the MRSD must be derived from the no observable adverse effect level (NOAEL) obtained in Good Laboratory Practice (GLP) nonclinical animal safety studies. […] Estimation of the human equivalent dose (HED) at the NOAEL is based on both a surface area conversion factor (SACF) and the data from these studies.

[4] = Enterobacteriaceae, KPC, NMC, SME (15)
[5] = 1 mg/kg, 24 hours, Cohort 1 a (1 mg/kg), compartmental (2) analysis, ± SE
[6] = 1 mg/kg, 48 hours, Cohort 1a (1 mg/kg), noncompartmental analysis, ± SD
[7] = 4 mg/kg, 24 hours, Cohort 1b (4 mg/kg), compartmental (2) analysis, ± SE
[8] = 4 mg/kg, 48 hours, Cohort 1b (4 mg/kg), noncompartmental analysis, ± SD
[9] = 7 mg/kg, 24 hours, Cohort 2 (7 mg/kg), compartmental (2) analysis, ± SE
[10] = 7 mg/kg, 48 hours, Cohort 2 (7 mg/kg), noncompartmental analysis, ± SD
[11] = 11 mg/kg, 24 hours, Cohort 3 (11 mg/kg), compartmental (2) analysis, ± SE
[12] = 11 mg/kg, 48 hours, Cohort 3 (11 mg/kg), noncompartmental analysis, ± SD
[13] = 15 mg/kg, 24 hours, Cohort 4 (15 mg/kg), compartmental (2) analysis, ± SE
[14] = 15 mg/kg, 48 hours, Cohort 4 (15 mg/kg), noncompartmental analysis, ± SD
[15] = healthy volunteers, 1-15 mg/kg IV 10 minute infusion

CN[C@@H]1[C@@H](O)[C@@H](O[C@@H]2[C@@H](O)[C@H](O[C@H]3OC(CNCCO)=CC[C@H]3N)[C@@H](N)C[C@H]2NC(=O)[C@@H](O)CCN)OC[C@]1(C)O [Compound 1, 6′-(2-Hydroxy-ethyl)-1-(4-amino-2(S)-hydroxy-butyryl)-sisomicin]
guinea pig AUC relative to average human AUC at proposed clinical dose ([1]; 80 mg/kg/day guinea pig vs 15 mg/kg human): 1.5 ×
AUC ([1]; both sexes, Crl:HA (Albino Hartley), guinea pig, plasma, subcutaneous, guinea pigs, 80 mg/kg/day): 370000 ng·h/mL
MIC50 (Enterobacteriaceae (ENT)): ≤ 0.25 µg/mL
MIC90 (Enterobacteriaceae (ENT)): 2 µg/mL (≈ 3.37 µM)
Cumulative % inhibited at Cmpd. MIC 1 (Enterobacteriaceae (ENT); Enterobacteriaceae (125)): 80.0%
Cumulative % inhibited at Cmpd. MIC 2 (Enterobacteriaceae (ENT); Enterobacteriaceae (125)): 92.0%
Cumulative % inhibited at Cmpd. MIC 4 (Enterobacteriaceae (ENT); Enterobacteriaceae (125)): 98.4%
Cumulative % inhibited at Cmpd. MIC 8 (Enterobacteriaceae (ENT); Enterobacteriaceae (125)): 98.4%
Cumulative % inhibited at Cmpd. MIC 16 (Enterobacteriaceae (ENT); Enterobacteriaceae (125)): 98.4%
Cumulative % inhibited at Cmpd. MIC 32 (Enterobacteriaceae (ENT); Enterobacteriaceae (125)): 98.4%
Cumulative % inhibited at Cmpd. MIC 64 (Enterobacteriaceae (ENT); Enterobacteriaceae (125)): 98.4%
Cumulative % inhibited at Cmpd. MIC >64 (Enterobacteriaceae (ENT); Enterobacteriaceae (125)): 100.0%
Cumulative % inhibited at Cmpd. MIC ≦0.5 (Enterobacteriaceae (ENT); Enterobacteriaceae (125)): 56.0%
Cumulative % inhibited at Cmpd. MIC 1 (Enterobacteriaceae (ENT); Enterobacteriaceae, AmpC (20)): 85.0%
Cumulative % inhibited at Cmpd. MIC 2 (Enterobacteriaceae (ENT); Enterobacteriaceae, AmpC (20)): 95.0%
Cumulative % inhibited at Cmpd. MIC 4 (Enterobacteriaceae (ENT); Enterobacteriaceae, AmpC (20)): 95.0%
Cumulative % inhibited at Cmpd. MIC 8 (Enterobacteriaceae (ENT); Enterobacteriaceae, AmpC (20)): 95.0%
Cumulative % inhibited at Cmpd. MIC 16 (Enterobacteriaceae (ENT); Enterobacteriaceae, AmpC (20)): 95.0%
Cumulative % inhibited at Cmpd. MIC 32 (Enterobacteriaceae (ENT); Enterobacteriaceae, AmpC (20)): 95.0%
Cumulative % inhibited at Cmpd. MIC 64 (Enterobacteriaceae (ENT); Enterobacteriaceae, AmpC (20)): 95.0%
Cumulative % inhibited at Cmpd. MIC >64 (Enterobacteriaceae (ENT); Enterobacteriaceae, AmpC (20)): 100.0%
Cumulative % inhibited at Cmpd. MIC ≦0.5 (Enterobacteriaceae (ENT); Enterobacteriaceae, AmpC (20)): 75.0%
Cumulative % inhibited at Cmpd. MIC 1 (Enterobacteriaceae (ENT); Enterobacteriaceae, ESBL (20)): 90.0%
Cumulative % inhibited at Cmpd. MIC 2 (Enterobacteriaceae (ENT); Enterobacteriaceae, ESBL (20)): 95.0%
Cumulative % inhibited at Cmpd. MIC 4 (Enterobacteriaceae (ENT); Enterobacteriaceae, ESBL (20)): 95.0%
Cumulative % inhibited at Cmpd. MIC 8 (Enterobacteriaceae (ENT); Enterobacteriaceae, ESBL (20)): 95.0%
Cumulative % inhibited at Cmpd. MIC 16 (Enterobacteriaceae (ENT); Enterobacteriaceae, ESBL (20)): 95.0%
Cumulative % inhibited at Cmpd. MIC 32 (Enterobacteriaceae (ENT); Enterobacteriaceae, ESBL (20)): 95.0%
Cumulative % inhibited at Cmpd. MIC 64 (Enterobacteriaceae (ENT); Enterobacteriaceae, ESBL (20)): 95.0%
Cumulative % inhibited at Cmpd. MIC >64 (Enterobacteriaceae (ENT); Enterobacteriaceae, ESBL (20)): 100.0%
Cumulative % inhibited at Cmpd. MIC ≦0.5 (Enterobacteriaceae (ENT); Enterobacteriaceae, ESBL (20)): 65.0%
Cumulative % inhibited at Cmpd. MIC 1 (Enterobacteriaceae (ENT); [4]): 100.0%
Cumulative % inhibited at Cmpd. MIC ≦0.5 (Enterobacteriaceae (ENT); [4]): 60.0%
Cumulative % inhibited at Cmpd. MIC 1 (Enterobacteriaceae (ENT); Enterobacteriaceae, MBL (10)): 80.0%
Cumulative % inhibited at Cmpd. MIC 2 (Enterobacteriaceae (ENT); Enterobacteriaceae, MBL (10)): 90.0%
Cumulative % inhibited at Cmpd. MIC 4 (Enterobacteriaceae (ENT); Enterobacteriaceae, MBL (10)): 100.0%
Cumulative % inhibited at Cmpd. MIC ≦0.5 (Enterobacteriaceae (ENT); Enterobacteriaceae, MBL (10)): 80.0%
Cumulative % inhibited at Cmpd. MIC 1 (Enterobacteriaceae (ENT); Enterobacteriaceae, WT (60)): 70.0%
Cumulative % inhibited at Cmpd. MIC 2 (Enterobacteriaceae (ENT); Enterobacteriaceae, WT (60)): 88.3%
Cumulative % inhibited at Cmpd. MIC 4 (Enterobacteriaceae (ENT); Enterobacteriaceae, WT (60)): 100.0%
Cumulative % inhibited at Cmpd. MIC ≦0.5 (Enterobacteriaceae (ENT); Enterobacteriaceae, WT (60)): 41.7%
accumulation over three days ([2]; Cohort 4, 15 mg/kg every 24 hours for three days): very little, in any, accumulation
AUC(0-inf) [2, 5]: 15000 ± 1000 ng·h/mL
Cmax [2, 5]: 8000 ± 800 ng/mL
clearance [2, 5]: 1.13 mL/min/kg
half-life ([2]; 1 mg/kg, 24 hours, Cohort 1 a (1 mg/kg), compartmental (2) analysis, ± SE, read-out: t1/2 alpha (converted)): 0.5 ± 0.1 h
half-life ([2]; 1 mg/kg, 24 hours, Cohort 1 a (1 mg/kg), compartmental (2) analysis, ± SE, read-out: t1/2 beta (converted)): 3.5 ± 0.2 h
AUC(0-inf) ([2]; 1 mg/kg, 48 hours, Cohort 1a (1 mg/kg)): 14000 ± 1000 ng·h/mL
Cmax [2, 6]: 7000 ± 700 ng/mL
clearance [2, 6]: 1.23 mL/min/kg
AUC(0-inf) [2, 7]: 65000 ± 4000 ng·h/mL
Cmax [2, 7]: 38000 ± 4000 ng/mL
clearance [2, 7]: 1.03 mL/min/kg
half-life ([2]; 4 mg/kg, 24 hours, Cohort 1b (4 mg/kg), compartmental (2) analysis, ± SE, read-out: t1/2 alpha (converted)): 0.3 ± 0.1 h
half-life ([2]; 4 mg/kg, 24 hours, Cohort 1b (4 mg/kg), compartmental (2) analysis, ± SE, read-out: t1/2 beta (converted)): 3 ± 0.1 h
AUC(0-inf) ([2]; 4 mg/kg, 48 hours, Cohort 1b (4 mg/kg)): 61000 ± 8000 ng·h/mL
Cmax [2, 8]: 32000 ± 5000 ng/mL
clearance [2, 8]: 1.12 mL/min/kg
AUC(0-inf) [2, 9]: 89000 ± 4000 ng·h/mL
Cmax [2, 9]: 40000 ± 3000 ng/mL
clearance [2, 9]: 1.3 mL/min/kg
half-life ([2]; 7 mg/kg, 24 hours, Cohort 2 (7 mg/kg), compartmental (2) analysis, ± SE, read-out: t1/2 alpha (converted)): 0.7 ± 0.1 h
half-life ([2]; 7 mg/kg, 24 hours, Cohort 2 (7 mg/kg), compartmental (2) analysis, ± SE, read-out: t1/2 beta (converted)): 3.1 ± 0.1 h
AUC(0-inf) ([2]; 7 mg/kg, 48 hours, Cohort 2 (7 mg/kg)): 88000 ± 12000 ng·h/mL
Cmax [2, 10]: 46000 ± 7000 ng/mL
clearance [2, 10]: 1.35 mL/min/kg
AUC(0-inf) [2, 11]: 186000 ± 8000 ng·h/mL
Cmax [2, 11]: 106000 ± 10000 ng/mL
clearance [2, 11]: 0.983 mL/min/kg
half-life ([2]; 11 mg/kg, 24 hours, Cohort 3 (11 mg/kg), compartmental (2) analysis, ± SE, read-out: t1/2 alpha (converted)): 0.3 ± 0.1 h
half-life ([2]; 11 mg/kg, 24 hours, Cohort 3 (11 mg/kg), compartmental (2) analysis, ± SE, read-out: t1/2 beta (converted)): 3.1 ± 0.1 h
AUC(0-inf) ([2]; 11 mg/kg, 48 hours, Cohort 3 (11 mg/kg)): 176000 ± 34000 ng·h/mL
Cmax [2, 12]: 114000 ± 27000 ng/mL
clearance [2, 12]: 1.08 mL/min/kg
AUC(0-inf) [2, 13]: 250000 ± 9000 ng·h/mL
Cmax [2, 13]: 116000 ± 8000 ng/mL
clearance [2, 13]: 1 mL/min/kg
half-life ([2]; 15 mg/kg, 24 hours, Cohort 4 (15 mg/kg), compartmental (2) analysis, ± SE, read-out: t1/2 alpha (converted)): 0.8 ± 0.1 h
half-life ([2]; 15 mg/kg, 24 hours, Cohort 4 (15 mg/kg), compartmental (2) analysis, ± SE, read-out: t1/2 beta (converted)): 3.1 ± 0.2 h
AUC(0-inf) ([2]; 15 mg/kg, 48 hours, Cohort 4 (15 mg/kg)): 242000 ± 37000 ng·h/mL
half-life ([2]; 15 mg/kg, 48 hours, Cohort 4 (15 mg/kg), compartmental (2) analysis, read-out: t½ alpha (converted)): 3 h
half-life ([2]; 15 mg/kg, 48 hours, Cohort 4 (15 mg/kg), compartmental (2) analysis, read-out: t½ beta (converted)): 15 h
Cmax [2, 14]: 144000 ± 45000 ng/mL
clearance [2, 14]: 1.05 mL/min/kg
derived serum clearance rate across doses [2, 15]: remained constant
dose proportionality of plasma PK [2, 15]: clear dose proportionality
NOAEL at 14 days ([3]; dog, in vivo): 3 mg/kg
HED ([3]; from dog NOAEL, SACF 1.8): 1.7 mg/kg
new toxicities ([3]; nonclinical GLP safety studies in dogs): no new toxicities apart from those already known to the class
cardiac or respiratory safety signals ([3]; nonclinical GLP studies in dogs): no cardiac or respiratory safety signals
